These results are taken from patent publication US6235742A, “5-substituted pyrazolo[4,3-D]pyrimidin-7-ones” (Pfizer Inc., priority 1997, dated 2001).

“Also recorded” adds a separate entry of the source. Where two headings read alike, the source gives them in different places.

Common to all, as to type: biochemical
The target of experiment [1] is T1, PDE5 (Oryctolagus cuniculus, UniProt G1SX67).
T1 construct: PDE5 is also obtained from human platelets or rabbit platelets; from tissue; host or cells: rabbit platelets
Kind of experiment: PDE5 inhibition, rabbit platelet. The text has this: (§1) In vitro PDE inhibitory activities against cyclic guanosine 3', 5'-monophosphate (cGMP) and cyclic adenosine 3', 5'-monophosphate (cAMP) phosphodiesterases can be determined by measurement of their IC50 inhibition of enzyme activity.
(§2) The required PDE enzymes are isolated from a variety of sources, including rat kidney, human corpus cavernosum, human platelets, rabbit platelets, human cardiac ventricle, human skeletal muscle and bovine retina, essentially by the method of W J Thompson and M M Appleman (Biochem, 1971, 10, 311).
(§3) For example, for some of the studies the calcium/calmodulin (Ca/CAM)-dependent PDE (PDE1) is obtained from either human cardiac ventricle or rat kidney. The cGMP-stimulated PDE (PDE2), the cGMP-specificPDE (PDE5) and the cGMP-inhibited cAMP PDE (PDE3) are obtained from human corpus cavernosum tissue. PDE5 is also obtained from human platelets or rabbit platelets by techniques usual in the art. The cAMP-specific PDE (PDE4) is obtained from rat kidney. The photoreceptor PDE (PDE6) is obtained from bovine retina.
(§4) Assays are performed using a modification of the "batch" method of W J Thompson et al (Biochem, 1979, 18, 5228).

The subject of the next experiment is Ca/CAM-dependent PDE1. Kind of experiment: PDE1 inhibition stated in words (source not given). To be noted: for potency and selectivity as PDE1 inhibitor: summary in words.
Excerpt: as §1, §2, §3, §4

The target in experiment [2] is T2, PDE5 (Homo sapiens, UniProt O76074).
T2 construct: PDE5 is also obtained from human platelets or rabbit platelets; from tissue; host or cells: human platelets
Kind of experiment: PDE5 inhibition, human platelet. To be noted: comparative study.
Excerpt: as §1, §2, §3, §4

For experiment [3], the system named is PDE1 (calcium/calmodulin (Ca/CAM)-dependent PDE). The experiment is described as follows: PDE1 inhibition, rat kidney.
Excerpt: as §1, §2, §3, §4

Experiment [4] deals with PDE3 (cGMP-inhibited cAMP PDE). The experiment is described as follows: PDE inhibition, PDE type 3 from human corpus cavernosum. The settings on record: PDE type 3, human corpus cavernosum.
Excerpt: as §1, §2, §3, §4

The target of experiment [5] is T3, PDE1 (calcium/calmodulin (Ca/CAM)-dependent PDE) (Homo sapiens, UniProt Q14123).
T3 construct: obtained from either human cardiac ventricle or rat kidney; from tissue; host or cells: human cardiac ventricle
Kind of experiment: PDE inhibition, PDE type 1 from human cardiac ventricle. To be noted: PDE type 1, human cardiac ventricle.
Excerpt: as §1, §2, §3, §4

A further experiment concerns the target T4, PDE5 (cGMP-specific PDE) (Homo sapiens, UniProt O76074).
T4 construct: are obtained from human corpus cavernosum tissue; from tissue; host or cells: human corpus cavernosum
Kind of experiment: PDE inhibition, PDE type 5 from human corpus cavernosum. The settings on record: PDE type 5, human corpus cavernosum.
Excerpt: as §1, §2, §3, §4

For experiment [6], the target named is T5, PDE2 (cGMP-stimulated PDE) (Homo sapiens, UniProt O00408).
T5 construct: are obtained from human corpus cavernosum tissue; from tissue; host or cells: human corpus cavernosum
The experiment is described as follows: PDE inhibition, PDE type 2 from human corpus cavernosum. The settings on record: PDE type 2, human corpus cavernosum.
Excerpt: as §1, §2, §3, §4

For a further experiment, the target named is T6, PDE6 (photoreceptor PDE) (Bos taurus, UniProt P11541+P23439).
T6 construct: The photoreceptor PDE (PDE6) is obtained from bovine retina; from tissue; host or cells: bovine retina
T6 sequence (P11541 2-856 limits assumed): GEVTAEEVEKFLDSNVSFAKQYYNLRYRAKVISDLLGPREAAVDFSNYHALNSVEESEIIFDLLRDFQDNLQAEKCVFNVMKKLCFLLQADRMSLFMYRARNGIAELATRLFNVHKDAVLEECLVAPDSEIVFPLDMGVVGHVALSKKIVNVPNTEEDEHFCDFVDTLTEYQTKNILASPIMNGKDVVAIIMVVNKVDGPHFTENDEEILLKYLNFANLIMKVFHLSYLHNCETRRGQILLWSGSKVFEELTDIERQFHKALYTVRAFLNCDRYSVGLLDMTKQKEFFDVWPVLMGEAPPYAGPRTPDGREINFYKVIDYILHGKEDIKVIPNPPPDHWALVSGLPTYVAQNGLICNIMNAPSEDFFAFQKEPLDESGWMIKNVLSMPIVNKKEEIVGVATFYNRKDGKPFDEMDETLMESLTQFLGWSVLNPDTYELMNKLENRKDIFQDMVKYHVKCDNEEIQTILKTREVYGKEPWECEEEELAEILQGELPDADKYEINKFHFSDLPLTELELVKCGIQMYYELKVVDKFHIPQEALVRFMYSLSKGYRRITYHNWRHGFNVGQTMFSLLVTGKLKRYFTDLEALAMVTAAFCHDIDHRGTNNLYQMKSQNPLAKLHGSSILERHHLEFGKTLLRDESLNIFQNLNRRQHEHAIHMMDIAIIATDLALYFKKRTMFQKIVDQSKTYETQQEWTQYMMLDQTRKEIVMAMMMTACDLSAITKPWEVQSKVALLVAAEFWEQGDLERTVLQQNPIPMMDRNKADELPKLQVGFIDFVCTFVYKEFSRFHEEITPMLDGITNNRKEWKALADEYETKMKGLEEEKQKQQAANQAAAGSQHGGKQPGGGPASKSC
T6 sequence (P23439 2-850 limits assumed): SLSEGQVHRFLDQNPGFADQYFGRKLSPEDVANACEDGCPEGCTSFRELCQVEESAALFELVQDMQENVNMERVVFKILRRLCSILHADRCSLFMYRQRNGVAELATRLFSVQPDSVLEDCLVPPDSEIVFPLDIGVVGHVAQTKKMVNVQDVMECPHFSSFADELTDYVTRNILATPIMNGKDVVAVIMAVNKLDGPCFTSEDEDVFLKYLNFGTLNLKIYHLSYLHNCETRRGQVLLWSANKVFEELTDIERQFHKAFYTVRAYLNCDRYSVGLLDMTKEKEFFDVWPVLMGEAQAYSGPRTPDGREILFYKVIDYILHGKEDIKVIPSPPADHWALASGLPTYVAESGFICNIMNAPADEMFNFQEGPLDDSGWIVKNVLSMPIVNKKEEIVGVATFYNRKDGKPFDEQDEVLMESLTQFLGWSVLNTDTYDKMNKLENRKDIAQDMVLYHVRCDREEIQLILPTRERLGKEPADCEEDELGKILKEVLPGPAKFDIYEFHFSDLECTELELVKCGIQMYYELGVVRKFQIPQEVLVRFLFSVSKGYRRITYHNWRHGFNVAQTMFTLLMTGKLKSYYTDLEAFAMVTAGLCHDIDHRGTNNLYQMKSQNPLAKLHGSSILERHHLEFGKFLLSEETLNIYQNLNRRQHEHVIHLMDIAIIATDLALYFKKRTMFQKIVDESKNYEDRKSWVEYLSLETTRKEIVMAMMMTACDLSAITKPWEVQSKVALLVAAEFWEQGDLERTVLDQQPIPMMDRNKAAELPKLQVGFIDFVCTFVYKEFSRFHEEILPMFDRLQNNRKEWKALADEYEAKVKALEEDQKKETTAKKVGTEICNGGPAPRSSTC
Kind of experiment: PDE inhibition, PDE type 6 from bovine retina. The settings on record: PDE type 6, bovine retina.
Excerpt: as §1, §2, §3, §4

The next experiment deals with PDE4 (cAMP-specific PDE). The experiment is described as follows: PDE inhibition, PDE type 4 from rat kidney. To be noted: PDE type 4, rat kidney.
Excerpt: as §1, §2, §3, §4

Setting [7] is: rabbit platelet, comparative study, read-out: PDE5 INHIBITION - IC50 Values.
Where [8] appears, read: rat kidney, comparative study, cGMP, read-out: cGMP / PDE1 INHIBITION - IC50 Values.
[9] abbreviates: further studies, IC50 per protocol, read-out: RABBIT PLATELET PDE5.
Setting [10] is: further studies, IC50 per protocol, read-out: RAT KIDNEY PDE1.

T3 sequence (Q14123 1-634 isoform Q14123-2): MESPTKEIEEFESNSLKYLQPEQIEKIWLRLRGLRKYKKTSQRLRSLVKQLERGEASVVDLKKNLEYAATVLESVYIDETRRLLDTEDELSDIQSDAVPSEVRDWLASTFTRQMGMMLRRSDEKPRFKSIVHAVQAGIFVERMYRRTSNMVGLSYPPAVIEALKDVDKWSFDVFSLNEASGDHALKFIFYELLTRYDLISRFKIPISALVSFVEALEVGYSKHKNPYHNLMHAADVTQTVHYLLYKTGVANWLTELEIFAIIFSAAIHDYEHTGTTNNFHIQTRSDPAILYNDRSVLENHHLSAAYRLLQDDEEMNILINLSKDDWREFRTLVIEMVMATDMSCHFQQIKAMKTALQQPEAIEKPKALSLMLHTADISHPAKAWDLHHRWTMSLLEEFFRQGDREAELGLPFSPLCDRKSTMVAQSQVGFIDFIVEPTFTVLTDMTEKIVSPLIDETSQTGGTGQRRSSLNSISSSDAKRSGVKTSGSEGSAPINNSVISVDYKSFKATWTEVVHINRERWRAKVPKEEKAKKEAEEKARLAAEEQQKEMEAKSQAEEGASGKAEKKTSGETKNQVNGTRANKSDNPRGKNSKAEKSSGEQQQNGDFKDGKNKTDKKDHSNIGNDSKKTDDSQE
T5 sequence (O00408 whole entry): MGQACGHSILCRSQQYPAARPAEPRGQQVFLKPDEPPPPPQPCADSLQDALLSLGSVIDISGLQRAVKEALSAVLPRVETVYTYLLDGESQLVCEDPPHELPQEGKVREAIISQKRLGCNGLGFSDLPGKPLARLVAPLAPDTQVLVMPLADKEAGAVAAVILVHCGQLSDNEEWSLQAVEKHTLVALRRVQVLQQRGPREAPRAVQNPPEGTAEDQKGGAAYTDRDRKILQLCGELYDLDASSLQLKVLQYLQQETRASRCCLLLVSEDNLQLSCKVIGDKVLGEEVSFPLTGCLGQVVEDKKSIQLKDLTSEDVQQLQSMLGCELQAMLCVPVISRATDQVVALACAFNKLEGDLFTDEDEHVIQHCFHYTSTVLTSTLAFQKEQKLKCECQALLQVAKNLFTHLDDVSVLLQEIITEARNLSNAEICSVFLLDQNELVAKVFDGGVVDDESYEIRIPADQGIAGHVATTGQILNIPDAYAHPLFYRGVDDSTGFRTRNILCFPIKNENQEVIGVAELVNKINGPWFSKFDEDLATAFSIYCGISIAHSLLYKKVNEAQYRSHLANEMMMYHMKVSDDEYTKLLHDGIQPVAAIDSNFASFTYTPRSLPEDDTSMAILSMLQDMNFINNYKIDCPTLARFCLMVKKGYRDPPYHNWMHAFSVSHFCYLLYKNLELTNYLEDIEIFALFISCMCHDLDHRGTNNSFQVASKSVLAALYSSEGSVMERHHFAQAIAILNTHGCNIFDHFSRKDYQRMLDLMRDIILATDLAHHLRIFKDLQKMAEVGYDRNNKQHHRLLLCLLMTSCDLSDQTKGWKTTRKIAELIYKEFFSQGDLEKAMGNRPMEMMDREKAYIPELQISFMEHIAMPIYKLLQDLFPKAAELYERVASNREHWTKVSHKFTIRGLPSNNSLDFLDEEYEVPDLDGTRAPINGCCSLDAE

On to `Cc1nn(C)c2c(=O)[nH]c(Cc3ccc(N(C)C)cc3)nc12` ['188 compound, reference compound], for which the results for the IC50 (on PDE5 [1] (setting [7]); at PDE5 [2]; in [3] (setting [8])) were 2.8 µM, 3.2 µM and 9.9 µM, respectively. Also, the PDE1 inhibition result in the experiment with Ca/CAM-dependent PDE1 (statement in words) is “not as effective at such low concentrations; also recorded: at least a weak PDE1 inhibitor”.
As to `CCCc1nn(C)c2c(=O)[nH]c(Cc3ccc(NS(=O)(=O)c4ccccc4)cc3)nc12` [Example 37], the IC50 at PDE5 [1] (setting [9]) came to 6.4 µM; in [3] (setting [10]), 0.094 µM. In addition, the “potency and selectivity as PDE1 inhibitor” value in the experiment on Ca/CAM-dependent PDE1 is “potent and selective PDE1 inhibitors”.
With `CCCc1nn(C)c2c(=O)[nH]c(Cc3ccc(N(CC)CC)cc3)nc12` [Example 50, 5-[4-(diethylamino)benzyl]-1-methyl-3-propyl-6,7-dihydro-1H-pyrazolo[4,3-d]pyrimidin-7-one], the IC50 was 3.94 µM in experiment [4]; 0.038 µM in [5]; 2.49 µM on PDE5 (cGMP-specific PDE); 6.7 µM at PDE5 [1] (setting [7]); 1.99 µM in experiment [6]; 2.03 µM at PDE6 (photoreceptor PDE). Further, the IC50 with PDE4 (cAMP-specific PDE) was determined as 23 µM; against PDE5 [2], 2.7 µM; in [3] (setting [8]), 0.037 µM. In addition, the “potency and selectivity as PDE1 inhibitor” value in the experiment with Ca/CAM-dependent PDE1 is “potent and selective PDE1 inhibitors”.
Turning to `CCCc1nn(C)c2c(=O)[nH]c(Cc3ccccc3NS(C)(=O)=O)nc12` [Example 36], the IC50 worked out at 1.8 µM at PDE5 [1] (setting [9]) and 0.059 µM in experiment [3] (setting [10]). Further, in the experiment on Ca/CAM-dependent PDE1, the “potency and selectivity as PDE1 inhibitor” value was “potent and selective PDE1 inhibitors”.
